The target of one test is T1, Plk3 PBD (Homo sapiens, UniProt Q9H4B4).
T1 sequence (Q9H4B4 335-646 limits assumed): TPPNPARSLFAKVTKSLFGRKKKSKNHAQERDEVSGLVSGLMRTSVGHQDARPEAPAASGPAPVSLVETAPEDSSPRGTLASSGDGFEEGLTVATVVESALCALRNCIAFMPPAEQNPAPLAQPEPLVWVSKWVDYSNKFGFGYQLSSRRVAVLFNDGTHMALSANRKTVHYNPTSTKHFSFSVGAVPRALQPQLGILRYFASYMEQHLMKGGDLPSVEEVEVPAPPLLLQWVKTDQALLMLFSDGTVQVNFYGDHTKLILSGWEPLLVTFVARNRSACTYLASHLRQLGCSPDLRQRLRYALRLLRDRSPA
The test is classed as binding.

In the next test the target is T2, Plk2 PBD (Homo sapiens, UniProt Q9NYY3).
T2 sequence (Q9NYY3 355-685 limits assumed): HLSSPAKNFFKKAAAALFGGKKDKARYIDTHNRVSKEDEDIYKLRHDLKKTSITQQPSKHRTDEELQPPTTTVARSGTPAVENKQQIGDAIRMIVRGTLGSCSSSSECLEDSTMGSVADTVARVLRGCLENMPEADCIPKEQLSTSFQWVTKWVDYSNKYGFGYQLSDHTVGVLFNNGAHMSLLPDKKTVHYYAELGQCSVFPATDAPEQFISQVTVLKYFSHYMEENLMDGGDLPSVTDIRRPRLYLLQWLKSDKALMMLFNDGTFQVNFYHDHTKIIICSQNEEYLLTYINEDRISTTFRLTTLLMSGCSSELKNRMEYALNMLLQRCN
The class given is binding.

Another test has as its target Plk1 PBD (Homo sapiens, UniProt P53350). The class given is binding.
The target of another test is full-length Plk1 (Homo sapiens, UniProt P53350). The class given is binding. To be noted: for more potent than the parent pThr-containing peptide 5 and its Pmab-containing congener 7 / loss of potency of the Ser to Ala variants relative to 21 and 23: full-length Plk1 competitive ELISA.
The test system of a further test is Plk1. Particulars: cited from earlier work.
The mark [1] stands for this setting: full-length Plk1, competitive ELISA, average ± SEM (n = 5).

The values that follow come from article PMC5340193 (ChemMedChem, 2017).

Like-named read-outs stand apart in the source and are kept apart here. Starred links: 1 amine or outer side, 2 acyl side, 3 side chain; linkers in the order of their positions; H or OH if unused. Non-standard residues stand in square brackets, D forms with d. Residues, ends and D or L forms follow the SMILES beside them. His(π-(CH2)8Ph) = N[C@@H](Cc1cncn1CCCCCCCCc1ccccc1)C(=O)O; X2 = O=C([C@@H](N[*:1])[C@@H](CCc1ccccc1)CP(=O)(O)O)[*:2]; X1 = CC(C)[C@@H](CP(=O)(O)O)[C@H](N[*:1])C(=O)[*:2]; X3 = CC[C@@H](CP(=O)(O)O)[C@H](N[*:1])C(=O)[*:2]; Abu(4-PO3H2) = N[C@@H](CCP(=O)(O)O)C(=O)O

Chain of Plk1 PBD (P53350 326-603 limits assumed): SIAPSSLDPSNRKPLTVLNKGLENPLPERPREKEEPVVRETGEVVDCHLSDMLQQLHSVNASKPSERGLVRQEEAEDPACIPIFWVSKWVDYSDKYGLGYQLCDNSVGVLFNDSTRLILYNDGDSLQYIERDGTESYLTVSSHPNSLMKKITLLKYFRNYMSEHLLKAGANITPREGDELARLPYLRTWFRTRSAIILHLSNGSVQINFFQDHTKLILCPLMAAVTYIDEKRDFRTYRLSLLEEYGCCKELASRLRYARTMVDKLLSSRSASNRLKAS
Chain of full-length Plk1 (P53350 whole entry): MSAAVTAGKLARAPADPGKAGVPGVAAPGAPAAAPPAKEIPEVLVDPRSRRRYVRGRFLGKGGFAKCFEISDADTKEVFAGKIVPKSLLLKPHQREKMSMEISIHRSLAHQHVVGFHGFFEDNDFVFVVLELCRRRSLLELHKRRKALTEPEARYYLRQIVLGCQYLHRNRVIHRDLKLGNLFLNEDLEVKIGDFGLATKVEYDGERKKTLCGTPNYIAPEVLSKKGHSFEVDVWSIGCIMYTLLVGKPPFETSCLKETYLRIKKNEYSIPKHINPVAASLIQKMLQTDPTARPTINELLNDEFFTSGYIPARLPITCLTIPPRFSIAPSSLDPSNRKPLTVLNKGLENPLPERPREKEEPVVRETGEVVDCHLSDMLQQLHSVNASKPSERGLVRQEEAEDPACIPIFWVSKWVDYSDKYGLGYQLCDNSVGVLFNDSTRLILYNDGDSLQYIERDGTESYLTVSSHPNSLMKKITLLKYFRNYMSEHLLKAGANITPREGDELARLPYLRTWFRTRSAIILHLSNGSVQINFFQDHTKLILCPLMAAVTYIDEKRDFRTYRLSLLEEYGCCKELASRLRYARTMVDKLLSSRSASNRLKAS

What is called IC50 is the point on the concentration scale where inhibition reaches its midpoint. In the case of `CC(=O)N1CCC[C@H]1C(=O)N[C@@H](CC(C)C)C(=O)N[C@@H](Cc1cncn1CCCCCCCCc1ccccc1)C(=O)N[C@@H](CO)C(=O)N[C@H](C(N)=O)[C@H](CP(=O)(O)O)C(C)C` [compound 21] (Ac-PL[His(π-(CH2)8Ph)]S[X1]-NH2; N-terminus and C-terminus assumed), the IC50 against Plk3 PBD worked out at 1100 nM; against Plk2 PBD, 360 ± 30 nM; against Plk1 PBD it was 7 ± 1 nM; at full-length Plk1, 60 ± 20 nM. Further, the “more potent than the parent pThr-containing peptide 5 and its Pmab-containing congener 7” value on full-length Plk1 is “approximately 3 fold”.

For the compound `CC(=O)N1CCC[C@H]1C(=O)N[C@@H](CC(C)C)C(=O)N[C@@H](Cc1cncn1CCCCCCCCc1ccccc1)C(=O)N[C@@H](CO)C(=O)N[C@@H](CCP(=O)(O)O)C(N)=O` [compound 19] (Ac-PL[His(π-(CH2)8Ph)]S[Abu(4-PO3H2)]-NH2; N-terminus and C-terminus assumed), the IC50 on Plk3 PBD was determined as 8800 nM; against Plk2 PBD, 5400 nM; on Plk1 PBD it was 11 ± 1 nM; on full-length Plk1, 1200 ± 300 nM.

In the case of `CC(=O)N1CCC[C@H]1C(=O)N[C@@H](CC(C)C)C(=O)N[C@@H](Cc1cncn1CCCCCCCCc1ccccc1)C(=O)N[C@@H](CO)C(=O)N[C@H](C(N)=O)[C@@H](CCc1ccccc1)CP(=O)(O)O` [compound 23] (Ac-PL[His(π-(CH2)8Ph)]S[X2]-NH2; N-terminus and C-terminus assumed), the values for the IC50 on Plk3 PBD, against Plk2 PBD and on Plk1 PBD were 1200 nM, 490 ± 50 nM and 4 ± 1 nM, respectively. In addition, the “more potent than the parent pThr-containing peptide 5 and its Pmab-containing congener 7” value at full-length Plk1 is reported as “approximately 3 fold”.

`CC[C@@H](CP(=O)(O)O)[C@H](NC(=O)[C@H](CO)NC(=O)[C@H](Cc1cncn1CCCCCCCCc1ccccc1)NC(=O)[C@H](CC(C)C)NC(=O)[C@@H]1CCCN1C(C)=O)C(N)=O` [compound 20] (Ac-PL[His(π-(CH2)8Ph)]S[X3]-NH2; N-terminus and C-terminus assumed) yielded a concentration for half-maximal inhibition (IC50) at full-length Plk1 of 200 ± 60 nM.

For the compound `CC(=O)N1CCC[C@H]1C(=O)N[C@@H](CC(C)C)C(=O)N[C@@H](Cc1cncn1CCCCCCCCc1ccccc1)C(=O)N[C@@H](C)C(=O)N[C@H](C(N)=O)[C@H](CP(=O)(O)O)C(C)C` [compound 24] (Ac-PL[His(π-(CH2)8Ph)]A[X1]-NH2; N-terminus and C-terminus assumed), the IC50 on full-length Plk1 (setting [1]) was found to be 11000 ± 3000 nM. At full-length Plk1, the “loss of potency of the Ser to Ala variants relative to 21 and 23” value is given as “approximate two orders-of-magnitude loss of potency”.

Regarding `CC(=O)N1CCC[C@H]1C(=O)N[C@@H](CC(C)C)C(=O)N[C@@H](Cc1cncn1CCCCCCCCc1ccccc1)C(=O)N[C@@H](CO)C(=O)N[C@H](C(N)=O)[C@@H](C)OP(=O)(O)O` [compound 5], the “IC50 values in competitive ELISA assays against Plk1” value in the test with Plk1 is reported as “low-nanomolar”.

On to `CC(=O)N1CCC[C@H]1C(=O)N[C@@H](CC(C)C)C(=O)N[C@@H](Cc1cncn1CCCCCCCCc1ccccc1)C(=O)N[C@@H](CO)C(=O)N[C@H](C(N)=O)[C@@H](C)CP(=O)(O)O` [compound 7, reference compound], for which it took 4400 nM to reach half-maximal inhibition on Plk3 PBD (IC50). Besides, in the test on Plk1, the “inhibitory potency on replacement of the pThr residue in 5 with Pmab” value is given as “complete retention of inhibitory potency”.

`CC(=O)N1CCC[C@H]1C(=O)N[C@@H](CC(C)C)C(=O)N[C@@H](Cc1cncn1CCCCCCCCc1ccccc1)C(=O)N[C@@H](C)C(=O)N[C@H](C(N)=O)[C@@H](CCc1ccccc1)CP(=O)(O)O` [compound 25] (Ac-PL[His(π-(CH2)8Ph)]A[X2]-NH2; N-terminus and C-terminus assumed) registered an IC50 at full-length Plk1 (setting [1]) of 70000 ± 14000 nM. In addition, the “loss of potency of the Ser to Ala variants relative to 21 and 23” value at full-length Plk1 was “approximate two orders-of-magnitude loss of potency”.
